Measured values published in ChEMBL document CHEMBL4699427, “A3- and A2B-fluorocorroles: synthesis, X-ray characterization and antiviral activity evaluation against human cytomegalovirus infection” (RSC Med Chem, 2020).
The source made the active and inactive calls. The calls are words filed in the database; no cut-off is given here.

Legend:
[1] = Cytotoxicity against human MRC5 cells assessed as reduction in cell viability incubated for 6 days by Hoechst 33342 staining based microscopic analysis; details: time 6 day
[2] = Cytotoxicity against human ARPE-19 cells assessed as reduction in cell viability incubated for 6 days by Hoechst 33342 staining based microscopic analysis; details: time 6 day
[3] = test system: Human betaherpesvirus 5; experiment: Antiviral activity against Human Cytomegalovirus infected in human MRC5 cells assessed as reduction in infection rate incubated for 6 days by Hoechst 33342 staining based microscopic analysis; type: functional, cell-based
[4] = test system: Human betaherpesvirus 5; experiment: Antiviral activity against human Cytomegalovirus infected in human ARPE-19 cells assessed as reduction in infection rate incubated for 6 days by Hoechst 33342 staining based microscopic analysis; type: functional, cell-based
[5] = test system: Human betaherpesvirus 5; experiment: Antiviral activity against human Cytomegalovirus infected in human ARPE-19 cells assessed as reduction in infection rate incubated for 12 days by Hoechst 33342 staining based microscopic analysis; type: functional, cell-based; details: Human betaherpesvirus 5, ARPE-19, 288 h
[6] = Selectivity index, ratio of CC50 for human MRC5 cells to IC50 for human Cytomegalovirus infected in human MRC5 cells incubated for 6 days; type: toxicity, cell-based; details: time 6 day, read-out: Ratio CC50/IC50
[7] = Selectivity index, ratio of CC50 for human MRC5 cells to IC50 for human Cytomegalovirus infected in human ARPE-19 cells incubated for 12 days; type: toxicity, cell-based; details: time 6 day, read-out: Ratio CC50/IC50
[8] = test system: Human betaherpesvirus 5; experiment: Antiviral activity against human Cytomegalovirus infected in human ARPE-19 cells assessed as reduction in infection rate incubated for 10 days by Hoechst 33342 staining based microscopic analysis; type: functional, cell-based
[9] = Drug uptake in rabbit RK13 cells incubated for 24 hrs by Hoechst staining based microscopic analysis; type: ADME, cell-based, Oryctolagus cuniculus; details: rk13, 24 h
[10] = Selectivity index, ratio of CC50 for human MRC5 cells to IC50 for human Cytomegalovirus infected in human ARPE-19 cells incubated for 10 days; type: toxicity, cell-based; details: time 6 day, read-out: Ratio CC50/IC50
[11] = test system: Human betaherpesvirus 5; experiment: Antiviral activity against human Cytomegalovirus infected in human ARPE-19 cells assessed as reduction in viral replication incubated for 13 days by Hoechst 33342 staining based microscopic analysis; type: functional, cell-based; details: Human betaherpesvirus 5, ARPE-19, 312 h
[12] = Selectivity index, ratio of CC50 for human MRC5 cells to IC50 for human Cytomegalovirus infected in human ARPE-19 cells incubated for 13 days; type: toxicity, cell-based; details: time 6 day, read-out: Ratio CC50/IC50
[13] = test system: Human betaherpesvirus 5; experiment: Antiviral activity against human Cytomegalovirus harboring ANCHOR infected in human MRC5 cells assessed as reduction in infection rate at 0.15 to 0.625 uM incubated for 6 days by Hoechst 33342 staining based microscopic analysis relative to control; type: functional, cell-based; details: dose microM 0.625-0.15, time 6.0 day
[14] = test system: Human betaherpesvirus 5; experiment: Antiviral activity against human Cytomegalovirus harboring ANCHOR infected in ARPE-19 cells assessed as reduction in replication by measuring UL44 expression at 0.6 to 0.15 uM by immunofluorescence B31assay; type: functional, cell-based; details: dose microM 0.625-0.15, time 10.0 day
[15] = test system: Human betaherpesvirus 5; experiment: Antiviral activity against human Cytomegalovirus infected in human MRC5 cells assessed as reduction in viral replication incubated for 6 days by Hoechst 33342 staining based microscopic analysis; type: functional, cell-based; details: Human betaherpesvirus 5, MRC5, 144 h
[16] = Human betaherpesvirus 5, MRC5, 144 h, read-out: IC50
[17] = Human betaherpesvirus 5, ARPE-19, 240 h, read-out: IC50

Structure (SMILES)	CC50 at 144 h [1] [µM]	CC50 at 144 h [2] [µM]	IC50 ([3]; mrc5)	IC50 ([4]; arpe-19)	IC50 [3, 16] [µM]	selectivity ratio at 144 h [6]	also measured
Fc1cc(F)cc(-c2c3nc(c4ccc([nH]4)c(-c4cc(F)cc(F)c4)c4ccc([nH]4)c(-c4cc(F)cc(F)c4)c4ccc2[nH]4)C=C3)c1	> 50	> 50	Not Active	Not Active			
Fc1cc(-c2c3nc(c4ccc([nH]4)c(-c4cc(F)c(F)c(F)c4F)c4ccc([nH]4)c(-c4cc(F)c(F)c(F)c4F)c4ccc2[nH]4)C=C3)c(F)c(F)c1F	> 50				6.42	> 7	IC50 [5]: 3.71 µM; selectivity ratio at 144 h [7]: > 13
Fc1cc(F)c(F)c(-c2c3ccc([nH]3)c(-c3c(F)c(F)cc(F)c3F)c3nc(c4ccc([nH]4)c(-c4c(F)c(F)cc(F)c4F)c4ccc2[nH]4)C=C3)c1	21.5				1.16	18.5	IC50 [8, 17]: 0.5 µM; Drug uptake [9]: Active; selectivity ratio at 144 h [10]: 62
Fc1ccccc1-c1c2nc(c3ccc([nH]3)c(-c3ccccc3F)c3ccc([nH]3)c(-c3ccccc3F)c3ccc1[nH]3)C=C2	> 50	> 50	Not Active	Not Active			
CN(C)c1c(F)c(F)c(-c2c3ccc([nH]3)c(-c3c(F)c(F)cc(F)c3F)c3nc(c4ccc([nH]4)c(-c4c(F)c(F)cc(F)c4F)c4ccc2[nH]4)C=C3)c(F)c1F	> 50				2.11	> 23.6	IC50 ([8]; arpe-19): Not Active
Fc1cc(F)c(F)c(-c2c3nc(c4ccc([nH]4)c(-c4c(F)c(F)cc(F)c4F)c4ccc([nH]4)c(-c4ccccc4)c4ccc2[nH]4)C=C3)c1F	22.3				6.6	3.38	
O=[N+]([O-])c1ccc(-c2c3ccc([nH]3)c(-c3c(F)c(F)cc(F)c3F)c3nc(c4ccc([nH]4)c(-c4c(F)c(F)cc(F)c4F)c4ccc2[nH]4)C=C3)s1	4.17				0.27	15.6	IC50 [11]: 0.13 µM; selectivity ratio at 144 h [12]: 385
Cc1ccc(F)c(-c2c3nc(c4ccc([nH]4)c(-c4cc(C)ccc4F)c4ccc([nH]4)c(-c4cc(C)ccc4F)c4ccc2[nH]4)C=C3)c1	> 50	> 50	Not Active	Not Active			
Fc1cc(-c2c3nc(c4ccc([nH]4)c(-c4ccnc(F)c4)c4ccc([nH]4)c(-c4ccnc(F)c4)c4ccc2[nH]4)C=C3)ccn1	6.25	6.17			0.46	13	IC50 ([4]; Human betaherpesvirus 5, ARPE-19, 144 h, read-out: IC50): 0.15 µM
Fc1cc(F)c(F)c(-c2c3nc(c4ccc([nH]4)c(-c4c(F)c(F)cc(F)c4F)c4ccc([nH]4)c(-c4c(F)c(F)nc(F)c4F)c4ccc2[nH]4)C=C3)c1F	3.4				0.09	37.8	IC50 [8, 17]: 0.05 µM; Activity [13]: Active; Activity [14]: Active; selectivity ratio at 144 h [10]: 450
Fc1cc(-c2c3nc(c4ccc([nH]4)c(-c4cc(F)c(F)c(F)c4)c4ccc([nH]4)c(-c4cc(F)c(F)c(F)c4)c4ccc2[nH]4)C=C3)cc(F)c1F	> 50	> 50		Not Active	6.3	> 7	
O=[N+]([O-])c1ccc(-c2c3ccc([nH]3)c(-c3c(F)c(F)cc(F)c3F)c3nc(c4ccc([nH]4)c(-c4c(F)c(F)cc(F)c4F)c4ccc2[nH]4)C=C3)c(C(F)(F)F)c1	11				2.45	4.49	IC50 [8, 17]: 0.33 µM; selectivity ratio at 144 h [10]: 18.6
O=[N+]([O-])c1cc(F)cc(-c2c3nc(c4ccc([nH]4)c(-c4cc(F)cc([N+](=O)[O-])c4)c4ccc([nH]4)c(-c4c(F)c(F)cc(F)c4F)c4ccc2[nH]4)C=C3)c1	36.7		Not Active				
CN(C)c1c(F)c(F)c(-c2c3nc(c4ccc([nH]4)c(-c4c(F)c(F)c(N(C)C)c(F)c4F)c4ccc([nH]4)c(-c4c(F)c(F)cc(F)c4F)c4ccc2[nH]4)C=C3)c(F)c1F	> 50				1.91	> 26.2	IC50 [8, 17]: 1.88 µM; selectivity ratio at 144 h [10]: 26.6
COc1ccc(F)c(-c2c3nc(c4ccc([nH]4)c(-c4cc(OC)ccc4F)c4ccc([nH]4)c(-c4cc(OC)ccc4F)c4ccc2[nH]4)C=C3)c1	> 50	> 50	Not Active	Not Active			
Fc1cc(F)c(F)c(-c2c3ccc([nH]3)c(-c3c(F)c(F)c(F)c(F)c3F)c3nc(c4ccc([nH]4)c(-c4c(F)c(F)c(F)c(F)c4F)c4ccc2[nH]4)C=C3)c1F	3.03				0.31	9.77	IC50 [8, 17]: 0.31 µM; selectivity ratio at 144 h [10]: 151
Fc1cc(F)c(F)c(-c2c3nc(c4ccc([nH]4)c(-c4c(F)c(F)cc(F)c4F)c4ccc([nH]4)c(-c4cccnc4)c4ccc2[nH]4)C=C3)c1F	12.8				1.1	11.6	
Fc1cc(-c2c3ccc([nH]3)c(-c3c(F)c(F)cc(F)c3F)c3nc(c4ccc([nH]4)c(-c4c(F)c(F)cc(F)c4F)c4ccc2[nH]4)C=C3)ccn1	0.65				0.06	10.8	IC50 [8, 17]: 0.05 µM; selectivity ratio at 144 h [10]: 114
Fc1ccc(F)c(-c2c3nc(c4ccc([nH]4)c(-c4cc(F)ccc4F)c4ccc([nH]4)c(-c4cc(F)ccc4F)c4ccc2[nH]4)C=C3)c1	> 50	> 50	Not Active	Not Active			
O=[N+]([O-])c1cc(F)cc(-c2c3ccc([nH]3)c(-c3c(F)c(F)cc(F)c3F)c3nc(c4ccc([nH]4)c(-c4c(F)c(F)cc(F)c4F)c4ccc2[nH]4)C=C3)c1	50		Not Active				
O=S(=O)(O)CCNc1c(F)c(F)c(-c2c3nc(c4ccc([nH]4)c(-c4c(F)c(F)c(NCCS(=O)(=O)O)c(F)c4F)c4ccc([nH]4)c(-c4c(F)c(F)c(NCCS(=O)(=O)O)c(F)c4F)c4ccc2[nH]4)C=C3)c(F)c1F	> 50	> 50	Not Active	Not Active			
Fc1cc(F)c(-c2c3nc(c4ccc([nH]4)c(-c4c(F)cc(F)cc4F)c4ccc([nH]4)c(-c4c(F)cc(F)cc4F)c4ccc2[nH]4)C=C3)c(F)c1	> 50	> 50		Not Active		> 9	IC50 [15]: 5.57 µM
